Measurements as given in patent US20200339691A1, “PROTEINACEOUS MOLECULES AND USES THEREFOR” (priority 2018, published 2020).
Where a SMILES comes first, the peptide text is derived from it. The star is where a group is joined. Myristoyl = CCCCCCCCCCCCCC(=O)*

Key:
MDA-MB-231 cells = type: cell-based, human; settings: 50 μM peptide, 48 hours, n = 1
Source text: (§1) Non-adherent cells were removed during the washing steps.

[1] = system: CD44^hiCD24^lo CSCs in MDA-MB-231 cells; assay: FACS analysis of CD44^hiCD24^lo cancer stem cells in MDA-MB-231 cells treated with P1 analogues; type: cell-based, human; settings: 50 μM peptide, 48 hours; for CD44^hiCD24^lo CSCs (%) / COI, Live Single CD44^hiCD24^lo CSCs (Cell Count): n = 1; for Average Inhibition of CSCs (%) / CD44^hiCD24^lo CSCs (%) Repeat 1 / CD44^hiCD24^lo CSCs (%) Repeat 2 / CD44^hiCD24^lo CSCs (%) Repeat 3: n = 3
Method: Analogues of P1 (Table 6) were designed and synthesized in accordance with the procedure of Example 5. The ability of these analogues to inhibit cancer stem cells was determined using FACS analysis on MDA-MB-231 cells, which constitutively contain approximately 90% CD44^hiCD24^lo cancer stem cells, treated with the peptides.
as §1
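Throughout, for COI, Live Single Cells (Cell Count): live means Hoechst-negative events among single cells.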

Row | Structure (SMILES) | COI (Cell Count) (MDA-MB-231 cells) | COI, Live Single Cells (Cell Count) (MDA-MB-231 cells) | COI, Single (Cell Count) (MDA-MB-231 cells) | Total Cell Count (MDA-MB-231 cells) | Inhibition of CSCs (%) Repeat 1 [1] | Inhibition of CSCs (%) Repeat 2 [1] | Inhibition of CSCs (%) Repeat 3 [1] | CD44^hiCD24^lo CSCs (%) [1] | COI, Live Single CD44^hiCD24^lo CSCs (Cell Count) [1] | Average Inhibition of CSCs (%) [1] | CD44^hiCD24^lo CSCs (%) Repeat 1 [1] | CD44^hiCD24^lo CSCs (%) Repeat 2 [1] | CD44^hiCD24^lo CSCs (%) Repeat 3 [1]
1 | CCCCCCCCCCCCCC(=O)N[C@@H](CC(C)C)C(=O)N[C@H](C(=O)N[C@@H](Cc1ccccc1)C(=O)N[C@H](C(=O)N[C@@H](Cc1ccccc1)C(=O)N[C@@H](CCCNC(=N)N)C(=O)N[C@@H](CC(C)C)C(=O)N[C@@H](CCCNC(=N)N)C(=O)N[C@@H](CCCCN)C(=O)N[C@@H](CC(=O)O)C(=O)N[C@@H](CCCNC(=N)N)C(=O)N[C@@H](CCSC)C(=O)N[C@@H](CCSC)C(=O)N[C@@H](CC(=O)O)C(=O)N[C@H](C(=O)N[C@@H](CCCCN)C(=O)N[C@@H](CCCCN)C(N)=O)C(C)C)[C@@H](C)CC)[C@@H](C)O [Peptide 2853827, Myristoyl-LTFIFRLRKDRMMDVKK-NH2] (Myristoyl-LTFIFRLRKDRMMDVKK-NH2) | 170 | 61 | 110 | 4681 | 95.44% | 91.08% | 89.47% | 1.64% | 1 | 92.00% | 4.09% | 8.00% | 9.45%
2 | CCCCCCCCCCCCCC(=O)N[C@@H](CC(C)C)C(=O)N[C@H](C(=O)N[C@@H](Cc1ccccc1)C(=O)N[C@H](C(=O)N[C@@H](Cc1ccccc1)C(=O)N[C@@H](CCCNC(=N)N)C(=O)N[C@@H](CC(C)C)C(=O)N[C@@H](CCC(=O)O)C(=O)N[C@@H](CCCCN)C(=O)NCC(=O)N[C@@H](CCCNC(=N)N)C(=O)N[C@@H](CCSC)C(=O)N[C@@H](CCSC)C(=O)N[C@@H](CC(=O)O)C(=O)N[C@H](C(=O)N[C@@H](CCCCN)C(=O)N[C@@H](CCCCN)C(N)=O)C(C)C)[C@@H](C)CC)[C@@H](C)O [Peptide 2853823, Myristoyl-LTFIFRLEKGRMMDVKK-NH2] (Myristoyl-LTFIFRLEKGRMMDVKK-NH2) | 672 | 608 | 626 | 1209 | 80.72% | 81.08% | 82.74% | 3.62% | 22 | 81.52% | 17.28% | 16.97% | 15.49%
3 | CCCCCCCCCCCCCC(=O)N[C@@H](CC(C)C)C(=O)N[C@H](C(=O)N[C@@H](Cc1ccccc1)C(=O)N[C@H](C(=O)N[C@@H](Cc1c[nH]cn1)C(=O)N[C@@H](CCCNC(=N)N)C(=O)N[C@@H](CC(C)C)C(=O)N[C@@H](CCCNC(=N)N)C(=O)N[C@@H](CCCCN)C(=O)NCC(=O)N[C@@H](CCCNC(=N)N)C(=O)N[C@@H](CCSC)C(=O)N[C@@H](CCSC)C(=O)N[C@@H](CC(=O)O)C(=O)N[C@H](C(=O)N[C@@H](CCCCN)C(=O)N[C@@H](CCCCN)C(N)=O)C(C)C)[C@@H](C)CC)[C@@H](C)O [Peptide 2853815, Myristoyl-LTFIHRLRKGRMMDVKK-NH2] (Myristoyl-LTFIHRLRKGRMMDVKK-NH2) | 320 | 279 | 300 | 1114 | 6.67% | 7.21% | 8.72% | 71.33% | 199 | 7.53% | 83.65% | 83.25% | 81.91%
4 | CCCCCCCCCCCCCC(=O)N[C@H](C(=O)N[C@@H](Cc1ccccc1)C(=O)N[C@H](C(=O)N[C@@H](Cc1ccccc1)C(=O)N[C@@H](CCCNC(=N)N)C(=O)N[C@@H](CC(C)C)C(=O)N[C@@H](CCCNC(=N)N)C(=O)N[C@@H](CCCCN)C(=O)NCC(=O)N[C@@H](C)C(=O)N[C@@H](CCSC)C(=O)N[C@@H](CCSC)C(=O)N[C@@H](CC(=O)O)C(=O)N[C@H](C(=O)N[C@@H](CCCCN)C(=O)N[C@@H](CCCCN)C(N)=O)C(C)C)[C@@H](C)CC)[C@@H](C)O [Peptide 2815318, Myristoyl-TFIFRLRKGAMMDVKK-NH2] (Myristoyl-TFIFRLRKGAMMDVKK-NH2) | 183 | 132 | 142 | 3480 | 54.80% | 54.73% | 55.59% | 53.03% | 70 | 55.04% | 40.51% | 40.61% | 39.86%
5 | CCCCCCCCCCCCCC(=O)N[C@H](C(=O)N[C@@H](Cc1ccccc1)C(=O)N[C@@H](C)C(=O)N[C@@H](Cc1ccccc1)C(=O)N[C@@H](CCCNC(=N)N)C(=O)N[C@@H](CC(C)C)C(=O)N[C@@H](CCCNC(=N)N)C(=O)N[C@@H](CCCCN)C(=O)NCC(=O)N[C@@H](CCCNC(=N)N)C(=O)N[C@@H](CCSC)C(=O)N[C@@H](CCSC)C(=O)N[C@@H](CC(=O)O)C(=O)N[C@H](C(=O)N[C@@H](CCCCN)C(=O)N[C@@H](CCCCN)C(N)=O)C(C)C)[C@@H](C)O [Peptide 2815304, Myristoyl-TFAFRLRKGRMMDVKK-NH2] (Myristoyl-TFAFRLRKGRMMDVKK-NH2) | 157 | 122 | 137 | 4317 | 43.62% | 47.79% | 51.20% | 68.03% | 83 | 47.54% | 50.53% | 46.84% | 43.79%
6 | CCCCCCCCCCCCCC(=O)N[C@@H](CC(C)C)C(=O)N[C@H](C(=O)N[C@@H](Cc1ccccc1)C(=O)N[C@@H](CCCCN)C(=O)N[C@@H](Cc1ccccc1)C(=O)N[C@@H](CCCNC(=N)N)C(=O)N[C@@H](CC(C)C)C(=O)N[C@@H](CCCNC(=N)N)C(=O)N[C@@H](CCCCN)C(=O)NCC(=O)N[C@@H](CCCNC(=N)N)C(=O)N[C@@H](CCSC)C(=O)N[C@@H](CCSC)C(=O)N[C@@H](CC(=O)O)C(=O)N[C@H](C(=O)N[C@@H](CCCCN)C(=O)N[C@@H](CCCCN)C(N)=O)C(C)C)[C@@H](C)O [Peptide 2853811, Myristoyl-LTFKFRLRKGRMMDVKK-NH2] (Myristoyl-LTFKFRLRKGRMMDVKK-NH2) | 79 | 64 | 69 | 1274 | 57.93% | 62.10% | 67.22% | 39.06% | 25 | 62.42% | 37.70% | 34.00% | 29.41%
7 | CCCCCCCCCCCCCC(=O)N[C@@H](CCCCN)C(=O)N[C@H](C(=O)N[C@@H](Cc1ccccc1)C(=O)N[C@H](C(=O)N[C@@H](Cc1ccccc1)C(=O)N[C@@H](CCCNC(=N)N)C(=O)N[C@@H](CC(C)C)C(=O)N[C@@H](CCCNC(=N)N)C(=O)N[C@@H](CCCCN)C(=O)NCC(=O)N[C@@H](CCCNC(=N)N)C(=O)N[C@@H](CCSC)C(=O)N[C@@H](CCSC)C(=O)N[C@@H](CC(=O)O)C(=O)N[C@H](C(=O)N[C@@H](CCCCN)C(=O)N[C@@H](CCCCN)C(N)=O)C(C)C)[C@@H](C)CC)[C@@H](C)O [Peptide 2853803, Myristoyl-KTFIFRLRKGRMMDVKK-NH2] (Myristoyl-KTFIFRLRKGRMMDVKK-NH2) | 741 | 666 | 702 | 1115 | 27.90% | 27.33% | 38.43% | 60.36% | 402 | 31.22% | 64.62% | 65.20% | 55.25%
8 | CCCCCCCCCCCCCC(=O)N[C@@H](CC(C)C)C(=O)N[C@H](C(=O)N[C@@H](Cc1ccccc1)C(=O)N[C@H](C(=O)N[C@@H](Cc1ccccc1)C(=O)N[C@@H](CCCNC(=N)N)C(=O)N[C@@H](CC(C)C)C(=O)N[C@@H](CCCCN)C(=O)N[C@@H](CCCCN)C(=O)NCC(=O)N[C@@H](CCCNC(=N)N)C(=O)N[C@@H](CCSC)C(=O)N[C@@H](CCSC)C(=O)N[C@@H](CC(=O)O)C(=O)N[C@H](C(=O)N[C@@H](CCCCN)C(=O)N[C@@H](CCCCN)C(N)=O)C(C)C)[C@@H](C)CC)[C@@H](C)O [Peptide 2853824, Myristoyl-LTFIFRLKKGRMMDVKK-NH2] (Myristoyl-LTFIFRLKKGRMMDVKK-NH2) | 4232 | 3743 | 3768 | 5455 | 77.86% | 79.50% | 76.91% | 16.54% | 619 | 78.09% | 19.85% | 18.39% | 20.72%
